Activity calls are given as the source filed them. The calls are words filed in the database; no cut-off is given here.
How the values were obtained:
Estrogen receptor beta [1] = target: T1, Estrogen receptor beta (Homo sapiens, UniProt Q92731)
Estrogen receptor [2] = target: T2, Estrogen receptor (Homo sapiens, UniProt P03372)
T2 sequence (P03372 whole entry): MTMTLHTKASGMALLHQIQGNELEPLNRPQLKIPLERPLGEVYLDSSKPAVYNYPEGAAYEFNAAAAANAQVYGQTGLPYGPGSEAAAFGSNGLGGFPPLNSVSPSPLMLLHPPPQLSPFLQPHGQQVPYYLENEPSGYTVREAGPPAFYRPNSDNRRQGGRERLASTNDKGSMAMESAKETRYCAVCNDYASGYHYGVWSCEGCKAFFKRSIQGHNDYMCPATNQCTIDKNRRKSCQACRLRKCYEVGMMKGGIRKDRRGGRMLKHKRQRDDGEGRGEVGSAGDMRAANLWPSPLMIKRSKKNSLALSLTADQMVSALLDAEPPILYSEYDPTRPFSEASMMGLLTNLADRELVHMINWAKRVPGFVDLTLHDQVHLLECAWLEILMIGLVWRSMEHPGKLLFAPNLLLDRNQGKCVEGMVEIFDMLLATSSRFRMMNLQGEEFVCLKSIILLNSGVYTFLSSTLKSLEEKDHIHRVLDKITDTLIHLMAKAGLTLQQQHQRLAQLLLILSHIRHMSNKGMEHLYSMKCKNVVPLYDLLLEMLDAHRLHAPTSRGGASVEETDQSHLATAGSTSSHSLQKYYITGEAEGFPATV

Estrogen receptor beta [3] = target: T1, Estrogen receptor beta; remark: listed apart in the source
Estrogen receptor [4] = target: T2, Estrogen receptor; remark: listed apart in the source
Estrogen receptor beta [5] = target: T1, Estrogen receptor beta; settings: T47D
Estrogen receptor [6] = target: T2, Estrogen receptor; remark: listed apart in the source
Estrogen receptor beta [7] = target: T1, Estrogen receptor beta; settings: T47D; remark: listed apart in the source
Estrogen receptor beta [8] = target: T1, Estrogen receptor beta; settings: T47D, 10e-4 M

T1 sequence (Q92731 whole entry): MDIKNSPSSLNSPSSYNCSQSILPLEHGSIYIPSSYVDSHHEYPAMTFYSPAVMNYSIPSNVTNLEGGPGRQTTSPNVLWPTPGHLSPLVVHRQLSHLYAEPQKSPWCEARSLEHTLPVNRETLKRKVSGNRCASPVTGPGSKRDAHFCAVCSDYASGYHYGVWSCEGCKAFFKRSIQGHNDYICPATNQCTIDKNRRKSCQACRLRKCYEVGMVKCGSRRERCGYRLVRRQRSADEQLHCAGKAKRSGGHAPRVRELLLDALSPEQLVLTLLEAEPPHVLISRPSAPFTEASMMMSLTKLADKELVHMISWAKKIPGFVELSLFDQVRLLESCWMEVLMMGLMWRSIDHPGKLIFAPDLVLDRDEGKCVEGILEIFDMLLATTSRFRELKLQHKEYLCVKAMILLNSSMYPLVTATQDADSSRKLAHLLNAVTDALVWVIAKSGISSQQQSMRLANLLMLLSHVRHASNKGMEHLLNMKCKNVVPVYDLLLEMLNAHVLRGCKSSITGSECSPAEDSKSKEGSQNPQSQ

Row | SMILES | Ki (Estrogen receptor beta [1]) [nM] | Ki (Estrogen receptor [2]) [nM] | further results
1 | CN1CCN(c2nc(NCCCc3ccccc3)nc(NC3CCc4ccc(O)cc4C3)n2)CC1 (stereo not given) | > 10000 | > 10000 | 
2 | CN(CCCc1ccc(Cl)cc1Cl)c1nc(NCCc2ccc(O)cc2)nc(N2CCNCC2)n1 | 25 | 125 | 
3 | CN(CCOc1ccc(Cl)cc1)c1nc(NCCc2ccc(O)cc2)nc(N2CCNCC2)n1 | 170 | 1000 | 
4 | CN1CCN(c2nc(NCCCc3ccccc3)nc(N3CCc4cc(O)ccc4C3)n2)CC1 | > 10000 | > 10000 | 
5 | CN1CCN(c2nc(NCCCc3ccccc3)nc(NCc3ccc(O)cc3)n2)CC1 | 3690 | 5130 | 
6 | CN1CCN(c2nc(NCCCc3ccccc3)nc(NCCc3cccc(O)c3)n2)CC1 | 4250 | > 10000 | 
7 | Oc1ccc(CCNc2nc(SCCCc3ccc(Cl)cc3)nc(N3CCNCC3)n2)cc1 |  |  | IA (Estrogen receptor beta [7]): inactive
8 | CN1CCN(c2nc(NCCc3ccc(O)cc3)nc(OCCCc3ccccc3)n2)CC1 | 1000 | 2400 | 
9 | CN1CCN(c2nc(NCCCCc3ccccc3)nc(NCCc3ccc(O)cc3)n2)CC1 | 490 | 415 | 
10 | CN(CCCc1ccc2c(c1)OCO2)c1nc(NCCc2ccc(O)cc2)nc(N2CCNCC2)n1 | 30 | 560 | 
11 | CN1CCN(c2nc(NCCCc3ccccc3)nc(N3CCCC(c4ccc(O)cc4)C3)n2)CC1 (stereo not given) | > 10000 | > 10000 | 
12 | Oc1ccc(CCNc2nc(NCCc3ccccc3)nc(N3CCNCC3)n2)cc1 | 1750 | 2370 | 
13 | CN(CCCc1ccc(Cl)cc1)c1nc(NCCc2ccc(O)cc2)nc(N2CCN(Cc3ccccc3)CC2)n1 | 8 | 120 | 
14 | CN(CCCc1ccc(F)cc1)c1nc(NCCc2ccc(O)cc2)nc(N2CCNCC2)n1 | 15 | 380 | IA (Estrogen receptor beta [7]): inactive; IC50 (Estrogen receptor beta [3]): 15 nM; EC50 (Estrogen receptor [4]): 200 nM; IC50 (Estrogen receptor [6]): 240 nM
15 | CN1CCN(c2nc(NCCc3ccc(O)cc3)nc(NC3CCc4ccccc43)n2)CC1 (stereo not given) | > 10000 | > 10000 | 
16 | CN(CCCc1ccc(C#N)cc1)c1nc(NCCc2ccc(O)cc2)nc(N2CCNCC2)n1 | 90 | 570 | 

Row | SMILES | Ki (Estrogen receptor beta [1]) [nM] | Ki (Estrogen receptor [2]) [nM] | further results
17 | CN1CCN(c2nc(NCCc3ccc(O)cc3)nc(SCCCc3ccccc3)n2)CC1 | 50 | 270 | 
18 | CN(C[C@@H]1C[C@@H]1c1ccccc1)c1nc(NCCc2ccc(O)cc2)nc(N2CCNCC2)n1 (relative stereo) |  |  | IA (Estrogen receptor beta [7]): inactive
19 | CN(CCCc1ccc(Cl)cc1)c1nc(NCCc2ccc(O)cc2)nc(N2CCN(C3CCCC3)CC2)n1 | 40 | 180 | 
20 | CN(CCCc1ccc(C(F)(F)F)cc1)c1nc(NCCc2ccc(O)cc2)nc(N2CCNCC2)n1 | 75 | 480 | 
21 | CN(CCCc1ccccc1Cl)c1nc(NCCc2ccc(O)cc2)nc(N2CCNCC2)n1 | 40 | 680 | 
22 | Oc1ccc(CCNc2nc(NC/C=C/c3ccccc3)nc(N3CCNCC3)n2)cc1 | 4200 | 6870 | 
23 | Oc1ccc(CCNc2nc(NCCCc3ccc(Cl)cc3)nc(N3CCNCC3)n2)cc1 | 55 | 200 | 
24 | O=C(c1ccc(OCCN2CCCCC2)cc1)c1c(-c2ccc(O)cc2)sc2cc(O)ccc12 |  |  | IA (Estrogen receptor beta [8]): inactive
25 | CN(CCCc1ccc(Cl)cc1)c1nc(NCCc2ccc(O)cc2)nc(N2CCN(Cc3ccncc3)CC2)n1 | 115 | 810 | 
26 | CN(CCCc1ccc(Cl)cc1)c1nc(NCCc2ccc(O)cc2)nc(N2C[C@@H]3C[C@H]2CN3)n1 | 105 | 2280 | 
27 | CN1CCN(c2nc(NCCCc3ccccc3)nc(NC3CCc4cc(O)ccc4C3)n2)CC1 (stereo not given) | 170 | 1000 | 
28 | Oc1ccc(CCNc2nc(SCCOc3ccc(Cl)cc3)nc(N3CCNCC3)n2)cc1 | 90 | 570 | 
29 | Oc1ccc(CCNc2nc(NCCCc3ccccc3)nc(N3CCNCC3)n2)cc1 | 200 | 1380 | 
30 | CN(CCCc1ccc(F)c(F)c1)c1nc(NCCc2ccc(O)cc2)nc(N2CCNCC2)n1 | 20 | 200 | 
31 | CN(CCCC1CCCCC1)c1nc(NCCc2ccc(O)cc2)nc(N2CCNCC2)n1 | 820 | 1420 | 
32 | CN1CCN(c2nc(NCCCc3ccccc3)nc(NCCc3ccc(O)cc3)n2)CC1 | 490 | 3240 | 

More lines, main results first:

Row | Ki (Estrogen receptor beta [1]) [nM] | Ki (Estrogen receptor [2]) [nM] | SMILES | further results
33 | 15 | 145 | CN1CCN(c2nc(NCCc3ccc(O)cc3)nc(N(C)CCCc3ccc(Cl)cc3)n2)CC1 | 
34 | 15 | 300 | CN(CCCc1ccc(Cl)cc1)c1nc(NCCc2ccc(O)cc2)nc(N2CCNCC2)n1 | IC50 (Estrogen receptor beta [3]): 5 nM; EC50 (Estrogen receptor [4]): 180 nM; IA (Estrogen receptor beta [5]): inactive; IC50 (Estrogen receptor [6]): 110 nM
35 | 400 | 2360 | CN(CCCc1ccc(Cl)cc1)c1nc(NCCc2ccc(O)cc2)nc(N2CCN(C(=O)N3CCOCC3)CC2)n1 | 
36 | 790 | > 10000 | CCN(CC)C(=O)N1CCN(c2nc(NCCc3ccc(O)cc3)nc(N(C)CCCc3ccc(Cl)cc3)n2)CC1 | 
37 | 15 | 60 | C[C@@H]1CN(c2nc(NCCc3ccc(O)cc3)nc(N(C)CCCc3ccc(Cl)cc3)n2)C[C@H](C)N1 | 
38 | 110 | 1130 | COc1ccc(C(=O)N2CCN(c3nc(NCCc4ccc(O)cc4)nc(N(C)CCCc4ccc(Cl)cc4)n3)CC2)cc1 | 
39 | 100 | 570 | CN(CCCc1ccc(Cl)cc1)c1nc(NCCc2ccc(O)cc2)nc(N2CCN(C(=O)COc3ccccc3)CC2)n1 | 
40 | 270 | 3000 | CN(C)C(=O)CN1CCN(c2nc(NCCc3ccc(O)cc3)nc(N(C)CCCc3ccc(Cl)cc3)n2)CC1 | 
41 | 25 |  | Cc1nc(CN2CCN(c3nc(NCCc4ccc(O)cc4)nc(N(C)CCCc4ccc(Cl)cc4)n3)CC2)cs1 | IA (Estrogen receptor beta [7]): inactive; IC50 (Estrogen receptor beta [3]): 5 nM
42 | 100 | 830 | CCN(CCCc1ccc(Cl)cc1)c1nc(NCCc2ccc(O)cc2)nc(N2CCNCC2)n1 | 
43 | 200 | 2040 | CN(CCCc1ccc(Cl)cc1)c1nc(NCCc2ccc(O)cc2)nc(N2CCN(CC(=O)c3ccccc3)CC2)n1 | 
44 | 600 | > 10000 | CC(C)S(=O)(=O)N1CCN(c2nc(NCCc3ccc(O)cc3)nc(N(C)CCCc3ccc(Cl)cc3)n2)CC1 | 
45 | 210 | 1020 | CN(CCCc1ccc(Cl)cc1)c1nc(NCCc2ccc(O)cc2)nc(N2CCN(CC(=O)C(C)(C)C)CC2)n1 | 
46 | 15 | 395 | CN(CCCc1ccc(Cl)cc1)c1nc(NCCc2ccc(O)cc2)nc(N2CCN(CCO)CC2)n1 | IA (Estrogen receptor beta [7]): inactive; IC50 (Estrogen receptor beta [3]): 15 nM; EC50 (Estrogen receptor [4]): 180 nM; IC50 (Estrogen receptor [6]): 30 nM
47 | 40 | 250 | CCC(=O)CCN1CCN(c2nc(NCCc3ccc(O)cc3)nc(N(C)CCCc3ccc(Cl)cc3)n2)CC1 | 
48 | 490 | 1450 | CN(CCCc1ccc(Cl)cc1)c1nc(NCCc2ccc(O)cc2)nc(N2CCN(S(=O)(=O)Cc3ccccc3)CC2)n1 | 
49 | 425 | 855 | CN(CCCc1ccc(Cl)cc1)c1nc(NCCc2ccc(O)cc2)nc(N2CCN(C(=O)Nc3ccc(Cl)cc3)CC2)n1 | 
50 | 50 |  | CN(CCCc1ccc(Cl)cc1)c1nc(NCCc2ccc(O)cc2)nc(N2CCN(Cc3ccccn3)CC2)n1 | 
51 | 35 |  | CN(CCCc1ccc(Cl)cc1)c1nc(NCCc2ccc(O)cc2)nc(N2CCN(Cc3cccnc3)CC2)n1 | 
52 | 110 | 1050 | CN(CCCc1ccc(Cl)cc1)c1nc(NCCc2ccc(O)cc2)nc(N2CCN(C(=O)CCc3ccccc3)CC2)n1 | 
53 | 100 | 1140 | Cc1ccc(CCCN(C)c2nc(NCCc3ccc(O)cc3)nc(N3CCNCC3)n2)cc1 | 
54 | 30 | 360 | C=CCN1CCN(c2nc(NCCc3ccc(O)cc3)nc(N(C)CCCc3ccc(Cl)cc3)n2)CC1 | 
55 | 225 | 1300 | CN(CCCc1ccc(Cl)cc1)c1nc(NCCc2ccc(O)cc2)nc(N2CCN(S(=O)(=O)/C=C/c3ccccc3)CC2)n1 | 
56 | 890 | 6320 | CN(CCCc1ccc(Cl)cc1)c1nc(NCCc2ccc(O)cc2)nc(N2CCN(c3ccccc3)CC2)n1 | 
